pIC50: −log10 of the molar value.
Experiments:
mTORC1 (mTOR/GbL/Raptor) = mTORC1 (mTOR/GbL/Raptor) (Homo sapiens, UniProt P42345); assay: mTOR/GbL/Raptor (mTORC1) ELISA Assay; type: biochemical; conditions: 0.2 nM mTORC1, 10 μM ATP, 50 nM NHis-tagged 4E-BP1; phosphorylation of 4E-BP1; read-out: IC50
How it was run: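 mTORC1 (0.2 nM) phosphorylated NHis-tagged 4E-BP1 (50 nM) with 10 μM ATP in 20 mM Hepes pH 7.2, 10 mM MnCl2, for 120 min at ambient temperature. Product was captured on Ni-chelate plates and detected with anti-phospho-4E-BP1 plus HRP secondary antibody by chemiluminescence.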

PI3Kα = PI3Kα (Homo sapiens, UniProt P42336); assay: PI3K Biochemical Assays (ATP consumption, luciferase-luciferin chemiluminescence); conditions: PI3Kα 1.5 nM, ATP 1 μM, PIP2 10 μM; percent of ATP consumed
Chain of PI3Kα (P42336 whole entry): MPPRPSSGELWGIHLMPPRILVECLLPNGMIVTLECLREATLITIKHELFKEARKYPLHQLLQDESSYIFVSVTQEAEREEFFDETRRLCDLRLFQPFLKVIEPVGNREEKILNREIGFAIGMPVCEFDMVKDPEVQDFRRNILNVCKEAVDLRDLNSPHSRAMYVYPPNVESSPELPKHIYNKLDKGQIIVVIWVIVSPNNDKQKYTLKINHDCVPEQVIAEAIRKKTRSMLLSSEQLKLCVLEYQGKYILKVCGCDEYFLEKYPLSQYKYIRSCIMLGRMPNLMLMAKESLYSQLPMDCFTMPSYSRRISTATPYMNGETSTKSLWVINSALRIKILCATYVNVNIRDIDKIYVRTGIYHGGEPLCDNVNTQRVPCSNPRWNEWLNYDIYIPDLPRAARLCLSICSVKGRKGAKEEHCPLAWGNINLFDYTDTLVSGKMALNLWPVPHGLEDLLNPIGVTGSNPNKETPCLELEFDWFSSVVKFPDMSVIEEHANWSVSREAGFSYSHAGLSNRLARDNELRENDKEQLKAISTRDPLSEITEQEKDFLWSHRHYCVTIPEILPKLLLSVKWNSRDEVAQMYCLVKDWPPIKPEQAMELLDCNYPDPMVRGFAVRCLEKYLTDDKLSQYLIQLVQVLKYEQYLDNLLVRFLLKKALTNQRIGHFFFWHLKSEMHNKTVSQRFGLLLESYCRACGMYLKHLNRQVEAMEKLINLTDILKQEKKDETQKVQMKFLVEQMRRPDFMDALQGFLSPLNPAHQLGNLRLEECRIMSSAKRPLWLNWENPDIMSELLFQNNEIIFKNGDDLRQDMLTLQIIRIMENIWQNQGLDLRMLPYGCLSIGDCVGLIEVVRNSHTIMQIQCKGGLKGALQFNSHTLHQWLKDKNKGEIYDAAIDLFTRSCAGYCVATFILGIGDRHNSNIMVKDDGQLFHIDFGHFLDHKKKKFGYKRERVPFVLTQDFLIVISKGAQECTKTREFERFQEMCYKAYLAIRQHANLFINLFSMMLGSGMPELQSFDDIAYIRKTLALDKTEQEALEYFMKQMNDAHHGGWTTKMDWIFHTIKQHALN
Chain of PI3Kα (P27986 whole entry partner): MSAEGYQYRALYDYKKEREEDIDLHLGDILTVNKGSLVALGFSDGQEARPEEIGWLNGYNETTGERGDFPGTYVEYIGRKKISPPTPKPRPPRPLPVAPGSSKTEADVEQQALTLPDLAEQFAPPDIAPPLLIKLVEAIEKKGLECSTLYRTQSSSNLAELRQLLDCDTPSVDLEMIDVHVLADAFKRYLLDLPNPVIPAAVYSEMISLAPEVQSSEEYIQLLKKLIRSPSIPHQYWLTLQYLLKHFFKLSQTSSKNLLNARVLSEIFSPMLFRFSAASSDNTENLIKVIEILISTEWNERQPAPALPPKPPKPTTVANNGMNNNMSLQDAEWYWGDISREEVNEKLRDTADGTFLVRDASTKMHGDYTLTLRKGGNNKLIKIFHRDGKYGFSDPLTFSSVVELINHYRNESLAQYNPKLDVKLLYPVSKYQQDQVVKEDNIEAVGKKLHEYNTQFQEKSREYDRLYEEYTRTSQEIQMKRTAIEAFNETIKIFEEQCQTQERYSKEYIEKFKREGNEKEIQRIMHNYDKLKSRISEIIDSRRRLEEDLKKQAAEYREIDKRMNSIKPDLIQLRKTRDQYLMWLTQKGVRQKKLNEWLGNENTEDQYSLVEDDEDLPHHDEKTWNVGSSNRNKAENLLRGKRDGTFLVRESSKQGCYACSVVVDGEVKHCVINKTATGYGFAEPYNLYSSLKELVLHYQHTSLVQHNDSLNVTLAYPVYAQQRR
How it was run: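 Kinase activity read as percent ATP consumed via luciferase-luciferin chemiluminescence. 1.5 nM enzyme, 1 μM ATP, 10 μM PIP2 in 50 mM Tris pH 7.5, 1 mM EGTA, 10 mM MgCl2, 1 mM DTT, 0.03% CHAPS; ~2 h at ambient temperature, ATP consumption kept to 40-60%.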

Structure (SMILES)	pIC50 (mTORC1 (mTOR/GbL/Raptor))	pIC50 (PI3Kα)
Cc1nc2ccc(-c3ccc4c(c3)CN(C(=O)N3CCCCC3c3cccc(Cl)c3)CCO4)cc2[nH]1 (stereo not drawn) [Compound 124, 4-{[2-(3-chlorophenyl)piperidin-1-yl]carbonyl}-7-(2-methyl-1H-benzimidazol-6-yl)-2,3,4,5-tetrahydro-1,4-benzoxazepine]	≥ 7.30	6.70 to 7.12
Cc1nc2ccc(-c3ccc4c(c3)CN(C(=O)N3CC[C@H](O)C[C@@H]3c3ccc(F)c(F)c3)CCO4)cc2[nH]1 (racemic) [Compound 140, (±)-(2R,4S)-2-(3,4-difluorophenyl)-1-{[7-(2-methyl-1H-benzimidazol-6-yl)-2,3-dihydro-1,4-benzoxazepin-4(5H)-yl]carbonyl}piperidin-4-ol]	6.60 to 7.30	6.30 to 6.70
O=C1CCN(C(=O)N2CCOc3ccc(-c4ccc(-c5ncc[nH]5)cc4)cc3C2)C(c2ccc(F)cc2)C1 (stereo not drawn) [Compound 54, 2-(4-fluorophenyl)-1-({7-[4-(1H-imidazol-2-yl)phenyl]-2,3-dihydro-1,4-benzoxazepin-4(5H)-yl}carbonyl)piperidin-4-one]	≥ 7.30	≥ 7.12
O=C1CCN(C(=O)N2CCOc3ccc(-c4ccc(C(=O)NCC(F)F)cc4)cc3C2)C(c2cccc(F)c2)C1 (stereo not drawn) [Compound 64, N-(2,2-difluoroethyl)-4-(4-{[2-(3-fluorophenyl)-4-oxopiperidin-1-yl]carbonyl}-2,3,4,5-tetrahydro-1,4-benzoxazepin-7-yl)benzamide]	6.60 to 7.30	6.00 to 6.30
CCOC(=O)C1CCCCN1C(=O)N1CCOc2ccc(-c3ccc4nc(C)[nH]c4c3)cc2C1 (stereo not drawn) [Compound 75, ethyl 1-{[7-(2-methyl-1H-benzimidazol-6-yl)-2,3-dihydro-1,4-benzoxazepin-4(5H)-yl]carbonyl}piperidine-2-carboxylate]	5.59 to 6.15	5.52 to 6.00
Cc1nc2ccc(-c3ccc4c(c3)CN(C(=O)N3CCC(=O)CC3c3ccccc3)CCO4)cc2[nH]1 (stereo not drawn) [Compound 111, 1-{[7-(2-methyl-1H-benzimidazol-6-yl)-2,3-dihydro-1,4-benzoxazepin-4(5H)-yl]carbonyl}-2-phenylpiperidin-4-one]	≥ 7.30	6.70 to 7.12
Cc1cccc(CN(C)C(=O)N2CCOc3ccc(-c4ccc5nc(C)[nH]c5c4)cc3C2)c1 [Compound 153, N-methyl-7-(2-methyl-1H-benzimidazol-6-yl)-N-[(3-methylphenyl)methyl]-2,3-dihydro-1,4-benzoxazepine-4(5H)-carboxamide]	6.15 to 6.60	5.52 to 6.00
Nc1nc2ccc(-c3ccc4c(c3)CN(C(=O)N3CCC(CF)CC3)CCO4)cc2[nH]1 [Compound 26, 6-(4-{[4-(fluoromethyl)piperidin-1-yl]carbonyl}-2,3,4,5-tetrahydro-1,4-benzoxazepin-7-yl)-1H-benzimidazol-2-amine]	≥ 7.30	6.30 to 6.70
CCNc1nc2ccc(-c3ccc4c(c3)CN(C(=O)N3CCC(=O)CC3c3cccc(F)c3)CCO4)cc2[nH]1 (stereo not drawn) [Compound 30, 1-({7-[2-(ethylamino)-1H-benzimidazol-6-yl]-2,3-dihydro-1,4-benzoxazepin-4(5H)-yl}carbonyl)-2-(3-fluorophenyl)piperidin-4-one]	≥ 7.30	≥ 7.12
Cc1nc2ccc(-c3ccc4c(c3)CN(C(=O)N3CCC(C(C)(C)O)CC3)CCO4)cc2[nH]1 [Compound 139, 2-(1-{[7-(2-methyl-1H-benzimidazol-6-yl)-2,3-dihydro-1,4-benzoxazepin-4(5H)-yl]carbonyl}piperidin-4-yl)propan-2-ol]	6.60 to 7.30	5.52 to 6.00
Nc1nc2ncc(-c3ccc4c(c3)CN(C(=O)N3CCC(=O)CC3c3cccc(F)c3)CCO4)cc2[nH]1 (stereo not drawn) [Compound 48, 1-{[7-(2-amino-1H-imidazo[4,5-b]pyridin-6-yl)-2,3-dihydro-1,4-benzoxazepin-4(5H)-yl]carbonyl}-2-(3-fluorophenyl)piperidin-4-one]	≥ 7.30	≥ 7.12
COC(=O)Nc1nc2ncc(-c3ccc4c(c3)CN(C(=O)N3CCC(CCF)CC3)CCO4)cc2[nH]1 [Compound 35, methyl [6-(4-{[4-(2-fluoroethyl)piperidin-1-yl]carbonyl}-2,3,4,5-tetrahydro-1,4-benzoxazepin-7-yl)-1H-imidazo[4,5-b]pyridin-2-yl]carbamate]	≥ 7.30	≥ 7.12
COC(=O)Nc1nc2ccc(-c3ccc4c(c3)CN(C(=O)N3CCC(=O)CC3c3ccc(F)c(F)c3)CCO4)cc2[nH]1 (stereo not drawn) [Compound 16, methyl [6-(4-{[2-(3,4-difluorophenyl)-4-oxopiperidin-1-yl]carbonyl}-2,3,4,5-tetrahydro-1,4-benzoxazepin-7-yl)-1H-benzimidazol-2-yl]carbamate]	6.60 to 7.30	≥ 7.12
Cc1nc2ccc(-c3ccc4c(c3)CN(C(=O)N3CCC(O)(c5ccc(F)cc5)CC3)CCO4)cc2[nH]1 [Compound 142, 4-(4-fluorophenyl)-1-{[7-(2-methyl-1H-benzimidazol-6-yl)-2,3-dihydro-1,4-benzoxazepin-4(5H)-yl]carbonyl}piperidin-4-ol]	≥ 7.30	6.30 to 6.70
Cc1nc2ccc(-c3ccc4c(c3)CN(C(=O)N3CC[C@H](O)C[C@@H]3c3ccc(F)cc3)CCO4)cc2[nH]1 (racemic) [Compound 136, (±)-(2R,4S)-2-(4-fluorophenyl)-1-{[7-(2-methyl-1H-benzimidazol-6-yl)-2,3-dihydro-1,4-benzoxazepin-4(5H)-yl]carbonyl}piperidin-4-ol]	6.60 to 7.30	6.00 to 6.30
Cc1nc2ccc(-c3ccc4c(c3)CN(C(=O)N3CCCCC3c3cccc(F)c3)CCO4)cc2[nH]1 (stereo not drawn) [Compound 81, 4-{[2-(3-fluorophenyl)piperidin-1-yl]carbonyl}-7-(2-methyl-1H-benzimidazol-6-yl)-2,3,4,5-tetrahydro-1,4-benzoxazepine]	≥ 7.30	≥ 7.12
Cc1nc2ccc(-c3ccc4c(c3)CN(C(=O)N3CCCCCCC3)CCO4)cc2[nH]1 [Compound 167, 4-(azocan-1-ylcarbonyl)-7-(2-methyl-1H-benzimidazol-6-yl)-2,3,4,5-tetrahydro-1,4-benzoxazepine]	5.59 to 6.15	5.52 to 6.00
Cc1nc2ccc(-c3ccc4c(c3)CN(C(=O)N3CCCCCC3)CCO4)cc2[nH]1 [Compound 89, 4-(azepan-1-ylcarbonyl)-7-(2-methyl-1H-benzimidazol-6-yl)-2,3,4,5-tetrahydro-1,4-benzoxazepine]	6.15 to 6.60	6.00 to 6.30
